From US9751861B2, “N1-(3,3,3-trifluoro-2-hydroxo-2-methylpropionyl)-piperidine derivatives as inhibitors of pyruvate dehydrogenase kinase” (MERCK PATENT GMBH, priority 2013, dated 2017)
pIC50, pKd: −log10 of the molar value.

Assays:
[1] = biological target: T1, human PDHK2 (12-407) (Homo sapiens, UniProt Q15119); test: Isothermal titration calorimetry (ITC) binding; details: 30° C., pH 7.5
T1 construct: The human PDHK2 (12-407) was produced in E. coli; His-tag (cleaved yes); made in house; host or cells: E. coli
How it was run: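 Untagged PDHK2 (12-407) from E. coli at 50 μM titrated into 5 μM compound at 30° C in pH 7.5 HEPES/KCl/MgCl2/phosphate buffer, ≤1% DMSO. One-site fit gave KA, ΔH^obs and N after heat-of-dilution correction; protein concentration referenced to a standard inhibitor and compound concentration adjusted to 1:1 stoichiometry.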

[2] = system: PDH-Elalpha (pSer300); test: Cellular immunofluorescence assay in HEK293T cells; format: cell-based; details: Homo sapiens, HEK-293T, 5 hours incubation, anti-PDH-E1alpha pSer300 immunofluorescence, read-out: IC50 (cell data)
How it was run: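 HEK293T cells were exposed to compound for 5 hours, then fixed, permeabilised and immunostained for PDH-Elalpha pSer300 with Hoechst counterstain, read by laser scanning cytometry. Percent effect was normalized to a pharmacological inhibitor control and fitted to dose-response curves.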

[3] = biological target: T2, PDHK2 (Homo sapiens, UniProt Q15119); test: Biochemical activity testing of PDHK2: PDC inactivation assay; details: human rec PDHK2, PDC from porcine heart, ATP 5 μM; read-out: IC50 PDHK2 (enzyme assay)
T2 construct: purchased Carna Bioscience
How it was run: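 Human recombinant PDHK2 (137 nM final) preincubated 30 min at RT with porcine heart PDC (20 mU/ml) and compound in pH 7.0 phosphate buffer, then phosphorylated with 5 μM ATP for 30 min at 37 °C. Residual PDC activity read as NADH fluorescence increase (Ex 340/Em 450) over 45 min; inhibitor-free reaction as full value, 3 mM DCA as zero, IC50 derived.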

Structure (SMILES) | pKd [1] | pIC50 [2] | pIC50 [3]
C[C@@](O)(C(=O)N1CCC(c2cc(C(F)(F)F)nn2-c2ccccc2)CC1)C(F)(F)F [Compound A43, (R)-1-[4-(2-Phenyl-5-trifluoromethyl-2H-pyrazol-3-yl)-piperidin-1-yl]-3,3,3-trifluoro-2-hydroxy-2-methyl-propan-1-one] | > 6.52 | 5.52 to 6.52 | 5.52 to 6.52
C[C@@](O)(C(=O)N1CCC(c2ccnn2C2CCOCC2)CC1)C(F)(F)F [Compound A116, (R)-3,3,3-Trifluoro-2-hydroxy-2-methyl-1-{4-[2-(tetrahydro-pyran-4-yl)-2H-pyrazol-3-yl]-piperidin-1-yl}-propan-1-one] | 5.52 to 6.52 | 4.30 to 5.52 | 5.52 to 6.52
C[C@@](O)(C(=O)N1CCC(c2cc(C(F)(F)F)nn2-c2ccc(Cl)cc2)CC1)C(F)(F)F [Compound A35, (R)-1-{4-[2-(4-Chloro-phenyl)-5-trifluoromethyl-2H-pyrazol-3-yl]-piperidin-1-yl}-3,3,3-trifluoro-2-hydroxy-2-methyl-propan-1-one] | > 6.52 | 5.52 to 6.52 | > 6.52
Cc1ccccc1-n1nccc1C1CCN(C(=O)[C@@](C)(O)C(F)(F)F)CC1 [Compound A5, (R)-3,3,3-Trifluoro-2-hydroxy-2-methyl-1-[4-(2-o-tolyl-2H-pyrazol-3-yl)-piperidin-1-yl]-propan-1-one] | > 6.52 | 5.52 to 6.52 | 5.52 to 6.52

Next, values leading:

pKd [1] | pIC50 [2] | pIC50 [3] | Structure (SMILES)
> 6.52 | 5.52 to 6.52 | > 6.52 | C[C@@H]1CN(C(=O)[C@@](C)(O)C(F)(F)F)CC[C@@H]1c1ccn(-c2ccc(F)cc2)n1 [Compound A46, (R)-3,3,3-Trifluoro-1-{(3S,4S)-4-[1-(4-fluoro-phenyl)-1H-pyrazol-3-yl]-3-methyl-piperidin-1-yl}-2-hydroxy-2-methyl-propan-1-one]
> 6.52 | 5.52 to 6.52 | > 6.52 | C[C@@](O)(C(=O)N1CCC(c2ccnn2-c2cccc(F)c2)CC1)C(F)(F)F [Compound A10, (R)-3,3,3-Trifluoro-1-{4-[2-(3-fluoro-phenyl)-2H-pyrazol-3-yl]-piperidin-1-yl}-2-hydroxy-2-methyl-propan-1-one]
> 6.52 | > 6.52 | > 6.52 | CC1CN(C(=O)[C@@](C)(O)C(F)(F)F)CCC1c1ccnn1-c1ccc(F)cc1F (mixture of isomers) [Compound A31, (R)-1-{4-[2-(2,4-difluoro-phenyl)-2H-pyrazol-3-yl]-3-methyl-piperidin-1-yl}-3,3,3-trifluoro-2-hydroxy-2-methyl-propan-1-one]
> 6.52 | 5.52 to 6.52 | 5.52 to 6.52 | C[C@@](O)(C(=O)N1CCC(c2cncn2-c2ccc(F)cc2F)CC1)C(F)(F)F [Compound A130, (R)-1-{4-[3-(2,4-Difluoro-phenyl)-3H-imidazol-4-yl]-piperidin-1-yl}-3,3,3-trifluoro-2-hydroxy-2-methyl-propan-1-one]
